Experimental data taken from the NIST ThermoML archive (doi:10.1021/acs.jced.6b00483).
Where “and” joins values, the source holds several entries; their conditions need not be identical. Equal values may be shown once.

Experiments:
[1] = Molar enthalpy of transition or fusion; conditions: Crystal 3; DSC
[2] = DSC
[3] = molar heat capacity at constant pressure; conditions: 101.33 kPa, Crystal 3, DSC

NC(N)=C([N+](=O)[O-])[N+](=O)[O-] [1,1-diamino-2,2-dinitroethene]
Conditions	Molar enthalpy of transition or fusion
[1]	0.623 kcal/mol and 0.676 kcal/mol

Conditions	Triple point temperature [K]	molar heat capacity at constant pressure [J/K/mol]
[2], Crystal 2	439.2	–
[2], Crystal 3	393.7	–
[3], 345 K	–	191.17
[3], 350 K	–	193.24
[3], 355 K	–	195.17
[3], 360 K	–	197.24
[3], 365 K	–	199.16
[3], 370 K	–	201.24
[3], 375 K	–	203.16
[3], 380 K	–	205.09
[3], 385 K	–	207.16
